# Data as given in publication PMC8815882, “Screening the pandemic response box identified benzimidazole carbamates, Olorofim and ravuconazole as promising drug candidates for the treatment of eumycetoma” (PLoS Neglected Tropical Diseases, 2022).
# Read-outs that look alike come from different tables or passages of the source.
# Tests used:
# M. mycetomatis MM55 = assay: IC50 determination, 2-fold dilution series 16 to 0.03125 μM; format: cell-based, Madurella mycetomatis; details: Madurella mycetomatis, MM55, Table 3; benzimidazole carbamates; M. mycetomatis; read-out: IC50
# [1] = system: M. mycetomatis genome strain MM55; assay: CLSI M38-A2 based in vitro susceptibility screening (XTT or resazurin), growth at fixed concentration; format: cell-based, Madurella mycetomatis; details: Madurella mycetomatis
# [2] = 25 uM, mean of three replicates, read-out: Percentage survival at 25um, 25 uM mean
# [3] = 25 uM, replicate A, read-out: Percentage survival at 25um, 25 um A
# [4] = 25 uM, replicate B, read-out: Percentage survival at 25um, 25 uM B
# [5] = 25 uM, replicate C, read-out: Percentage survival at 25um, 25 uM C
# [6] = first replicate column, read-out: Percentage survival at 100um, 100 uM A
# [7] = mean of three replicates, read-out: Percentage survival at 100um, 100 uM mean
# [8] = second replicate column, read-out: Percentage survival at 100um, 100 uM A
# [9] = third replicate column, read-out: Percentage survival at 100um, 100 uM A
# [10] = 25 uM, mean of replicates, read-out: Percentage survival at 25um, 25 uM mean
# [11] = mean of replicates, read-out: Percentage survival at 100um, 100 uM mean
# [12] = replicate 1, read-out: Percentage survival at 100um, 100 uM A
# [13] = replicate 2, read-out: Percentage survival at 100um, 100 uM A
# [14] = replicate 3, read-out: Percentage survival at 100um, 100 uM A
# [15] = 25 uM, mean of replicates, MM55, read-out: Percentage survival at 25um, 25 uM mean
# [16] = 25 uM, replicate A, MM55, read-out: Percentage survival at 25um, 25 um A
# [17] = 25 uM, replicate B, MM55, read-out: Percentage survival at 25um, 25 uM B
# [18] = 25 uM, replicate C, MM55, read-out: Percentage survival at 25um, 25 uM C
# [19] = mean of replicates, MM55, read-out: Percentage survival at 100um, 100 uM mean
# [20] = replicate 1, MM55, read-out: Percentage survival at 100um, 100 uM A
# [21] = replicate 2, MM55, read-out: Percentage survival at 100um, 100 uM A
# [22] = replicate 3, MM55, read-out: Percentage survival at 100um, 100 uM A
# [23] = 25 uM, mean of three, M. mycetomatis MM55, read-out: Percentage survival at 25um, 25 uM mean
# [24] = 25 uM, replicate A, M. mycetomatis MM55, read-out: Percentage survival at 25um, 25 um A
# [25] = 25 uM, replicate B, M. mycetomatis MM55, read-out: Percentage survival at 25um, 25 uM B
# [26] = 25 uM, replicate C, M. mycetomatis MM55, read-out: Percentage survival at 25um, 25 uM C
# [27] = mean of three, M. mycetomatis MM55, read-out: Percentage survival at 100um, 100 uM mean
# [28] = replicate 1, M. mycetomatis MM55, read-out: Percentage survival at 100um, 100 uM A (first replicate column)
# [29] = replicate 2, M. mycetomatis MM55, read-out: Percentage survival at 100um, 100 uM A (second replicate column)
# [30] = replicate 3, M. mycetomatis MM55, read-out: Percentage survival at 100um, 100 uM A (third replicate column)
# [31] = 25 uM, mean, read-out: Percentage survival at 25um, 25 uM mean
# [32] = mean, read-out: Percentage survival at 100um, 100 uM mean
# [33] = replicate (first column), read-out: Percentage survival at 100um, 100 uM A
# [34] = replicate (second column), read-out: Percentage survival at 100um, 100 uM A
# [35] = replicate (third column), read-out: Percentage survival at 100um, 100 uM A
Compound,"activity at 25 µM [1, 3] [%]","activity at 25 µM [1, 4] [%]","activity at 25 µM [1, 5] [%]","activity at 25 µM [1, 15] [%]","activity at 25 µM [1, 16] [%]","activity at 25 µM [1, 17] [%]","activity at 25 µM [1, 18] [%]","activity at 100 µM [1, 19] [%]","activity at 100 µM [1, 20] [%]","activity at 100 µM [1, 21] [%]","activity at 100 µM [1, 22] [%]",further results
"CCCOc1ccc2nc(NC(=O)OC)[nH]c2c1 [MMV002163, Oxibendazole, reference compound]",,,,,,,,,,,,IC50 (M. mycetomatis MM55): 69.1 µM
CCCCOC(=O)Nc1cc2nc(C3CCCCC3)[nH]c2cc1N1CCCC1 [MMV687730],,,,,,,,,,,,IC50 (M. mycetomatis MM55): 11.6 µM
Cc1ccc(C)c(OCCCCCCN2C[C@H](O)[C@@H](O)[C@H](O)[C@H]2CO)c1 [MMV1634401],64.4,87.6,96.1,,,,,,,,,"activity at 25 µM [1, 2]: 82.7%; activity at 100 µM [1, 6]: 83.4%; activity at 100 µM [1, 7]: 82.2%; activity at 100 µM [1, 8]: 82.8%; activity at 100 µM [1, 9]: 80.5%"
COc1c(NC(=O)[C@H]2CC[C@@H](COc3ccc([N+](=O)[O-])cc3)CC2)c(F)cc2c(=O)c(C(=O)O)cn(C3CC3)c12 [MMV1633965],86.3,88.2,76,,,,,,,,,"activity at 25 µM [1, 10]: 83.5%; activity at 100 µM [1, 11]: 82.8%; activity at 100 µM [1, 12]: 86.1%; activity at 100 µM [1, 13]: 78.7%; activity at 100 µM [1, 14]: 83.4%"
FC(F)(F)c1cc(C(F)(F)F)c2ccc3nc(-c4nnco4)cn3c2n1 [MMV690555],,,,91.6,100,96.8,77.9,81.1,87,83.1,73.1,
Nc1ccc2oc(=O)ccc2c1I [MMV1581378],75.8,85.5,80.1,,,,,,,,,"activity at 25 µM [1, 2]: 80.5%; activity at 100 µM [1, 6]: 75.4%; activity at 100 µM [1, 7]: 64.9%; activity at 100 µM [1, 8]: 66.2%; activity at 100 µM [1, 9]: 53.2%"
CC(N)C12CC3CC(CC(C3)C1)C2 (stereo not drawn) [MMV637855],,,,86,78.5,82.6,96.9,60.7,60.1,57.9,64,
O=C(O)c1sccc1S(=O)(=O)n1ccc2cc(Br)ccc21 [MMV1580855],101,108,88.3,,,,,,,,,"activity at 25 µM [1, 2]: 98.9%; activity at 100 µM [1, 7]: 97.9%; activity at 100 µM ([1]; replicate 1, read-out: Percentage survival at 100um, 100 uM A (first replicate column)): 128%; Percent fungal survival at 100 µM ([1]; replicate 2, read-out: Percentage survival at 100um, 100 uM A (second replicate column)): 86.2%; activity at 100 µM ([1]; replicate 3, read-out: Percentage survival at 100um, 100 uM A (third replicate column)): 79.1%"
COc1ccc2cc3[n+](cc2c1OCCN(CCn1cncn1)Cc1ccc(F)cc1F)CCc1cc2c(cc1-3)OCO2 [MMV1593540],,,,,,,,,,,,"activity at 25 µM [1, 23]: 87.6%; activity at 25 µM [1, 24]: 96.5%; activity at 25 µM [1, 25]: 90.9%; activity at 25 µM [1, 26]: 75.5%; activity at 100 µM [1, 27]: 84.2%; activity at 100 µM [1, 28]: 80.5%; Percent fungal survival at 100 µM [1, 29]: 83.8%; activity at 100 µM [1, 30]: 88.4%"
Cc1cc(CCOc2c(C)cc(-c3nnn(C)n3)cc2C)on1 [MMV1782349],,,,75.6,84.4,90,52.4,52.1,44.9,65,46.2,
O=C(CP(=O)(O)O)NCCc1cccc(Oc2ccccc2)c1 [MMV1579787],84.6,81.7,73.2,,,,,,,,,"activity at 25 µM [1, 31]: 79.8%; activity at 100 µM [1, 32]: 46.3%; activity at 100 µM [1, 33]: -0.0188%; activity at 100 µM [1, 34]: 65.7%; activity at 100 µM [1, 35]: 73.3%"
O=C(Cc1ccccc1F)Nc1nc2ccccc2[nH]1 [MMV1578576],73.4,74.5,63.8,,,,,,,,,"activity at 25 µM [1, 10]: 70.6%; activity at 100 µM [1, 11]: 78.7%; activity at 100 µM [1, 12]: 102%; activity at 100 µM [1, 13]: 65.1%; activity at 100 µM [1, 14]: 69.2%"
Oc1cc(-c2cccc3ccccc23)[nH]n1 [MMV422940],89.3,79.4,70.9,,,,,,,,,"activity at 25 µM [1, 31]: 79.9%; activity at 100 µM [1, 32]: 81.4%; activity at 100 µM [1, 33]: 88.2%; activity at 100 µM [1, 34]: 73.6%; activity at 100 µM [1, 35]: 82.2%"
CN(C/C=C/C#CC(C)(C)C)Cc1cccc2ccccc12 [MMV1634359],132,99.8,60.4,,,,,,,,,"activity at 25 µM [1, 31]: 97.3%; activity at 100 µM [1, 32]: 81.5%; activity at 100 µM [1, 33]: 86.8%; activity at 100 µM [1, 34]: 58.9%; activity at 100 µM [1, 35]: 98.8%"
CC(C)(C)c1ccc(C(Cn2cccc(C(F)(F)F)c2=O)NC2Cc3ccccc3C2)cc1 (stereo not drawn) [MMV1634393],,,,62.5,51.3,64.6,71.7,66.7,63.7,74.2,62.2,
NC(=O)C(c1ccccc1)(c1ccccc1)[C@H]1CCCN(CCc2ccc3c(c2)CCO3)C1 [MMV1782412],,,,101,130,101,70.7,68.7,67.1,68,71,
CCCC(=O)OCCc1ccccc1 [MMV1578899],,,,,,,,,,,,"activity at 25 µM [1, 23]: 85.3%; activity at 25 µM [1, 24]: 87.9%; activity at 25 µM [1, 25]: 88.2%; activity at 25 µM [1, 26]: 79.8%; activity at 100 µM [1, 27]: 87.4%; activity at 100 µM [1, 28]: 89.3%; Percent fungal survival at 100 µM [1, 29]: 88.3%; activity at 100 µM [1, 30]: 84.5%"
CC[C@H](NC(=O)[C@H](C)NC)C(=O)N1C[C@@H](O)C[C@H]1Cc1c(-c2[nH]c3cc(F)ccc3c2C[C@@H]2C[C@H](O)CN2C(=O)[C@H](CC)NC(=O)[C@H](C)NC)[nH]c2cc(F)ccc12 [MMV1557856],,,,83.4,88.1,92.5,69.7,68.8,72.6,66.6,67.1,
NC[C@H]1OB(O)c2c(OCCCO)cccc21 [MMV1578566],83.4,92.5,72.9,,,,,,,,,"activity at 25 µM [1, 10]: 83%; activity at 100 µM [1, 11]: 97.6%; activity at 100 µM [1, 12]: 93.8%; activity at 100 µM [1, 13]: 96.2%; activity at 100 µM [1, 14]: 103%"
CC1(C)[C@H](C(=O)O)N2C(=O)C[C@H]2S1(=O)=O [MMV637945],,,,,,,,,,,,"activity at 25 µM [1, 24]: 97.1%; activity at 100 µM [1, 27]: 98.9%; activity at 100 µM [1, 28]: 99.5%; activity at 100 µM [1, 29]: 112%; activity at 100 µM [1, 30]: 85.4%; activity at 25 µM ([1]; read-out: Percentage survival at 25um, 25 uM B): 95.1%; activity at 25 µM ([1]; read-out: Percentage survival at 25um, 25 uM C): 84.6%; activity at 25 µM ([1]; read-out: Percentage survival at 25um, 25 uM mean): 92.3%"
N=C(N)c1ccc(COc2ccc(Cl)cc2)cc1 [MMV1579844],,,,,,,,,,,,"activity at 25 µM [1, 23]: 73%; activity at 25 µM [1, 24]: 69.6%; activity at 25 µM [1, 25]: 72.8%; activity at 25 µM [1, 26]: 76.5%; activity at 100 µM [1, 27]: 73.6%; activity at 100 µM [1, 28]: 55.9%; Percent fungal survival at 100 µM [1, 29]: 97.7%; activity at 100 µM [1, 30]: 67.2%"
N[C@H]1CCC[C@H]1C(=O)O [MMV1634361],,,,92.1,98.3,98.6,79.4,96.6,90.9,120,79.2,
